{"source": "patent US20040034042A1", "about": "“Preservative composition” (priority 2002, published 2004)", "origin": "cited, not measured here", "key": {"[1]": {"test_system": "Rhizopus, Penicillium and like fungi", "settings": "literature statement; effects called insufficient"}}}
{"smiles": "Cn1c(=O)c2c(ncn2C)n(C)c1=O", "note": "[caffeine]", "values": [{"measurement": "antibacterial activity to Rhizopus, Penicillium and like fungi", "setting": "[1]", "value": "exhibits antibacterial activity"}, {"measurement": "production of aflatoxin by A. parasiticus", "setting": "A. parasiticus", "value": "inhibits the production of aflatoxin"}]}
